Our source for the Km and ΔTm values is article doi:10.1101/2022.12.23.521429v4, “Structural perspective on the design of selective DYRK1B inhibitors” (biorxiv, 2025).

Structures are written as SMILES.

The target of assay [1] is T1, DYRK1A kinase domain (126-490) (Homo sapiens, UniProt Q13627).
T1 construct: also printed 124-490 in b15 and 126-489), non-cleavable C-terminal His-tag kept; E. coli LOBSTR; Tyr321 phosphorylated; b63 prints Q9Y463 (swapped with DYRK1B)
The experiment in a line: kinase activity assay. As to conditions: co-substrate and buffer of the KM determination not told. Format: biochemical.

Assay [2] has as its target T2, DYRK1B kinase domain (78-442) (Homo sapiens, UniProt Q9Y463).
T2 construct: kinase domain 78-442, C-terminal TEV site and His-tag (ENLYFQ*GHHHHHH), His-tag cleaved by TEV; E. coli LOBSTR; Tyr273 autophosphorylated
Briefly: Sypro Orange thermal shift assay. It is filed as binding. To be noted: read-out: shift in Tm.

In general, Km refers to the substrate concentration at which the rate is half of its maximum.

On to `Nc1ncnc2c1ncn2[C@@H]1O[C@H](COP(=O)(O)OP(=O)(O)OP(=O)(O)O)[C@@H](O)[C@H]1O` [ATP], for which the Km in assay [1] came to 118 µM.
As to `COc1cc(N2CCN(C)CC2)ccc1Nc1nccc(-c2cn(C)c3cnccc23)n1` [AZ191], the ΔTm at 10 µM in assay [2] is 12 °C.
